Results taken from patent US7109193B2, “Tricyclic diazepines tocolytic oxytocin receptor antagonists” (Wyeth, priority 2001, dated 2006).

Target: T1, human oxytocin receptor (Homo sapiens, UniProt P30559)
T1 construct: host or cells: CHO cells (pcDNA3.1 vector)
T1 sequence (P30559 1-389): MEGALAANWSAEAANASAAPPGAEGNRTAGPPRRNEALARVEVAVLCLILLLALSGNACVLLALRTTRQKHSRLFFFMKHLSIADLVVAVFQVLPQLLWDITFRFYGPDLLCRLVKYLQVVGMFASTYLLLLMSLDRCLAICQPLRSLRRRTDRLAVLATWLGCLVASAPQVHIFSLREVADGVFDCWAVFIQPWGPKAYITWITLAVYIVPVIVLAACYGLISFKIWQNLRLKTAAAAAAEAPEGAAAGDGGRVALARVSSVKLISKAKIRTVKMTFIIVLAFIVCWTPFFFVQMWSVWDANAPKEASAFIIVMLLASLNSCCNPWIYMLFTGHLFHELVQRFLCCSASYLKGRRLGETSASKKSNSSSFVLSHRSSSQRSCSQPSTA
Test: Oxytocin binding in Chinese Hamster Ovary cell membranes expressing human oxytocin receptors
Conditions: CHO cell membranes, [3H]oxytocin; for IC50: values in parentheses, read-out: OT (IC50); for inhibition at 0.1 µM: 100 nM, values without parentheses, read-out: OT % inhibition @ 100% nM

| IC50 | inhibition at 0.1 µM | SMILES |
| --- | --- | --- |
| 1.74 nM |  | COc1cc(C(=O)N2Cc3ccc(C(=O)N(C)CCN(C)C)n3Cc3ccccc32)ccc1-c1ccccc1C(F)(F)F [Example 22, N-Methyl-[N-(2-dimethylamino)ethyl]-10-{[2-methoxy-2′-trifluoromethyl-[1,1′-biphenyl]-4-yl]carbonyl}-10,11-dihydro-5H-pyrrolo[2,1-c][1,4]benzodiazepine-3-carboxamide] |
| 6.37 nM |  | Cc1cc(C(=O)N2Cc3ccc(C(=O)NC(=N)N)n3Cc3ccccc32)ccc1-c1ccccc1C(F)(F)F [Example 8, N-[(10-{[2-methyl-2′-(trifluoromethyl)[1,1′-biphenyl]-4-yl]carbonyl}-10,11-dihydro-5H-pyrrolo[2,1-c][1,4]benzodiazepin-3-yl)carbonyl]guanidine] |
| 5.39 nM |  | COc1cc(-c2ccccc2C)c(Cl)cc1C(=O)N1Cc2ccc(C(=O)N3CCCN(C)CC3)n2Cc2ccccc21 [Example 60, {10-[(6-Chloro-3-methoxy-2′-methyl[1,1′-biphenyl]-4-yl)carbonyl]-10,11-dihydro-5H-pyrrolo[2,1-c][1,4]benzodiazepin-3-yl}(4-methyl-1,4-diazepan-1-yl)methanone] |
|  | 95% | COc1cccc(-c2ccc(C(=O)N3Cc4ccc(C(=O)N(C)CCCN(C)C)n4Cc4ccccc43)cc2C)c1 [Example 102, N-[3-(Dimethylamino)propyl]-10-[(3′-methoxy-2-methyl[1,1′-biphenyl]-4-yl)carbonyl]-N-methyl-10,11-dihydro-5H-pyrrolo[2,1-c][1,4]benzodiazepine-3-carboxamide] |
| 2.04 nM |  | COc1cccc(-c2cc(OC)c(C(=O)N3Cc4ccc(C(=O)N(C)CCCN(C)C)n4Cc4ccccc43)cc2Cl)c1 [Example 99, 10-[(6-Chloro-3,3′-dimethoxy[1,1′-biphenyl]-4-yl)carbonyl]-N-[3-(dimethylamino)propyl]-N-methyl-10,11-dihydro-5H-pyrrolo[2,1-c][1,4]benzodiazepine-3-carboxamide] |
| 12.1 nM |  | C=CCN1CCN(C(=O)c2ccc3n2Cc2ccccc2N(C(=O)c2cc(Cl)c(-c4ccccc4C)cc2OC)C3)CC1 [Example 219, (4-Allyl-1-piperazinyl){10-[(6-chloro-3-methoxy-2′-methyl[1,1′-biphenyl]-4-yl)carbonyl]-10,11-dihydro-5H-pyrrolo[2,1-c][1,4]benzodiazepin-3-yl}methanone] |
|  | 44% | COc1cc(C(=O)N2Cc3ccc(C(=O)NCCCN(C)C)n3Cc3ccccc32)ccc1-c1cccc2ccccc12 [Example 80, N-[3-(Dimethylamino)propyl]-10-[3-methoxy-4-(1-naphthyl)benzoyl]-10,11-dihydro-5H-pyrrolo[2,1-c][1,4]benzodiazepine-3-carboxamide] |
| 3.84 nM |  | COc1ccccc1-c1ccc(C(=O)N2Cc3ccc(C(=O)N4CCN(CCN(C)C)CC4)n3Cc3ccccc32)cc1C [Example 195, {4-[2-(Dimethylamino)ethyl]-1-piperazinyl}{10-[(2′-methoxy-2-methyl[1,1′-biphenyl]-4-yl)carbonyl]-10,11-dihydro-5H-pyrrolo[2,1-c][1,4]benzodiazepin-3-yl}methanone] |
| 8 nM |  | O=C(c1ccc(-c2cccc3ccccc23)cc1Cl)N1Cc2cccn2Cc2ccccc21 [Example 24, [2-Chloro-4-(naphthalen-1-yl)phenyl][10,11-dihydro-5H-pyrrolo[2,1-c][1,4]benzodiazepin-10-yl]methanone] |
| 1.81 nM |  | COc1cc(C(=O)N2Cc3ccc(C(=O)N4CCC[C@H]4CN4CCCC4)n3Cc3ccccc32)ccc1-c1ccccc1C(F)(F)F [Example 20, {[10-(2-Methoxy)-2′-trifluoromethyl-[1,1′-biphenyl]-4-yl]carbonyl}-[(2S)-[(2-pyrrolidin-1-yl)methyl]pyrrolidin-1-yl]-10,11-dihydro-5H-pyrrolo[2,1-c][1,4]benzodiazepin-3-yl-methanone] |
|  | 50% | COc1cccc(-c2ccc(C(=O)N3Cc4ccc(C(=O)NCCCN(C)C)n4Cc4ccccc43)cc2OC)c1 [Example 82, 10-[(2,3′-Dimethoxy[1,1′-biphenyl]-4-yl)carbonyl]-N-[3-(dimethylamino)propyl]-10,11-dihydro-5H-pyrrolo[2,1-c][1,4]benzodiazepine-3-carboxamide] |
|  | 98% | COc1ccccc1-c1ccc(C(=O)N2Cc3ccc(C(=O)N(C)CCCN(C)C)n3Cc3ccccc32)cc1 [Example 103, N-[3-(Dimethylamino)propyl]-10-[(2′-methoxy[1,1′-biphenyl]-4-yl)carbonyl]-N-methyl-10,11-dihydro-5H-pyrrolo[2,1-c][1,4]benzodiazepine-3-carboxamide] |
|  | 96% | Cc1ccccc1-c1ccc(C(=O)N2Cc3ccc(C(=O)N(C)CCCN(C)C)n3Cc3ccccc32)cc1 [Example 104, N-[3-(Dimethylamino)propyl]-N-methyl-10-[(2′-methyl[1,1′-biphenyl]-4-yl)carbonyl]-10,11-dihydro-5H-pyrrolo[2,1-c][1,4]benzodiazepine-3-carboxamide] |
|  | 54% | CN(C)CCN(C)C(=O)c1ccc2n1Cc1ccccc1N(C(=O)c1ccc(-c3cccc4ccccc34)cc1Cl)C2 [Example 96, 10-[2-Chloro-4-(1-naphthyl)benzoyl]-N-[2-(dimethylamino)ethyl]-N-methyl-10,11-dihydro-5H-pyrrolo[2,1-c][1,4]benzodiazepine-3-carboxamide] |
| 6.61 nM |  | COc1cc(-c2ccccc2C)c(Cl)cc1C(=O)N1Cc2ccc(C(=O)N3CCN(C)CC3)n2Cc2ccccc21 [Example 47, {10-[(6-Chloro-3-methoxy-2′-methyl[1,1′-biphenyl]-4-yl)carbonyl]-10,11-dihydro-5H-pyrrolo[2,1-c][1,4]benzodiazepin-3-yl}(4-methyl-1-piperazinyl)methanone] |
| 2.85 nM |  | Cc1cc(C(=O)N2Cc3ccc(C(=O)N4CCC[C@H]4CN4CCCC4)n3Cc3ccccc32)ccc1-c1ccccc1C(F)(F)F [Example 258, (10-{[2-Methyl-2′-(trifluoromethyl)[1,1′-biphenyl]-4-yl]carbonyl}-10,11-dihydro-5H-pyrrolo[2,1-c][1,4]benzodiazepin-3-yl)[(2S)-2-(1-pyrrolidinylmethyl)pyrrolidinyl]methanone] |
| 3.44 nM |  | COc1cc(-c2ccccc2C)ccc1C(=O)N1Cc2ccc(C(=O)N(C)CCCN(C)C)n2Cc2ccccc21 [Example 11, N-Methyl-N-[3-(dimethylamino)propyl]-10-[(3-methoxy-2′-methyl[1,1′-biphenyl]-4-yl)carbonyl]-10,11-dihydro-5H-pyrrolo[2,1-c][1,4]benzodiazepine-3-carboxamide] |
|  | 35% | COc1cccc(-c2cc(OC)c(C(=O)N3Cc4ccc(C(=O)NCCCN(C)C)n4Cc4ccccc43)cc2Cl)c1 [Example 79, 10-[(6-Chloro-3,3′-dimethoxy[1,1′-biphenyl]-4-yl)carbonyl]-N-[3-(dimethylamino)propyl]-10,11-dihydro-5H-pyrrolo[2,1-c][1,4]benzodiazepine-3-carboxamide] |
| 17.8 nM |  | COc1ccccc1-c1ccc(C(=O)N2Cc3ccc(C(=O)N4CCN(CCCN(C)C)CC4)n3Cc3ccccc32)cc1 [Example 246, {4-[3-(Dimethylamino)propyl]-1-piperazinyl}{10-[(2′-methoxy[1,1′-biphenyl]-4-yl)carbonyl]-10,11-dihydro-5H-pyrrolo[2,1-c][1,4]benzodiazepin-3-yl}methanone] |
